Patent US20070031485A1, “Pharmaceutical composition having a cationic excipient” (priority 2003, published 2007)
Read-outs that look alike come from different tables or passages of the source.

How the values were obtained:
[1] = Critical micelle concentration; format: physicochemical
[2] = format: physicochemical; details: buffer
From the text: Surface-active betaine esters are even more susceptible to alkaline hydrolysis than non-surface active esters. The reason for the increased reactivity of surface-active betaine esters is that the ester bond will hydrolyse more readily when the surfactants are in the form of aggregates, i.e. micelles. Like all other surfactants, surface-active betaine esters form micelles at a certain concentration, the CMC, and further increase of the surfactant concentration just leads to the formation of more micelles; the concentration of free surfactant molecules stays constant. In the vast majority of applications of cationic surfactants the concentration is far above the CMC, which means that almost all surfactants are in an aggregated form. The micelles of betaine ester surfactants are highly positively charged since all the quaternary ammonium groups are located at the surface of the aggregate. The positive charges must be compensated for by negatively charged ions, so-called counterions. All types of negative ions present in the solution, including hydroxyl ions, will accumulate at the micelle surface. This means that the local concentration of hydroxyl ions will be higher in the vicinity of the micelle than in the bulk, or, differently expressed, the local pH around the micelles will be higher than in the bulk. […]

[3] = Stabilization of aqueous dispersion of cholesterol particles, visual appearance; format: physicochemical; details: 1% cholesterol in 0.1% w/w (3 mM) dodecyl betainate solution
Method: The ability of dodecyl betainate to stabilize aqueous dispersions of hydrophobic particles was investigated in samples containing 1% cholesterol (of lanolin origin, Fluka) in pure water and in dodecyl betainate solutions of varying concentration. The samples were prepared by weighing the components into screw-capped glass vials that were first shaken, then kept in an ultrasonic bath for 5 minutes and finally shaken again before left for inspection. The table below presents the visual appearance of samples with different surfactant concentrations at different times.

[4] = tested on: intestinal mucosa (small intestine segments)
From the text: (§1) A modified Using diffusion chamber with an exposed tissue area 1.78 cm^2 was used in the experiments. 15 to 20 cm of the small intestine, distal to the Ligament of Treitz was removed from rats (male Sprague-Dawley, 400-500 g) and used in the tests. Three rats and three segments per rat were included in each experimental group. The passage of different marker molecules, ^14C-mannitol and FITC-dextran (4400 FD4), from the mucosal to the serosal chamber were expressed as apparent permeability coefficient (Papp). The apparent permeability coefficient (Papp) to mannitol and FITC-dextran 4.400 across the intestinal mucosa was calculated from the equation: Papp (cm/s)×10-6)=dc/dt * (V/(A*C0)), where dc/dt is the change of the serosal concentration over time (mol/L/sec), V is the volume in the reservoir of the serosal side (cm^3), CO is the initial concentration of the marker in the mucosal reservoir (mol/L), and A is the exposed intestinal area in the chamber (cm^2) .
(§2) The difference in electric potential over the segments was measured before and after the experiment.

[5] = tested on: intestinal mucosa (small intestine segments); assay: Using (Ussing) diffusion chamber experiments, passage of marker molecules across rat small intestine; details: betaine ester containing solution (0.5 % w/w) compared to control
From the text: as §1, §2

Method for Erythrocytes from rats: Erythrocytes from rats were washed 3 times and suspended in saline solution (0.9%) to a volume fraction of 0.025. The hemolys experiments were performed by mixing the erythrocyte suspension with surfactant solutions in a 1:1 ratio, thereby giving a finale erythrocyte volume fraction of 0.0125 and a surfactant concentration as stated in the figure. The samples were then incubated at 37° C. for 1 hour and centrifuged at 2000 g for 10 minutes. Aliquots of the supernatant was mixed with an equal volume of 15 mM C14TAC before the hemoglobin content was measured spectrophotometrically on a Lab systems iEMS Reader MF at 540 nm.
The concentrate was dispersed in saline solution by gentle stirring at room temperature just before the experiment. The resulting aqueous dispersion was tested in the same way as stated above for the surfactant solution.
The concentrations given in the figure represent the amounts of cationic surfactant in the tested solutions. […] The phosphatidyl choline used is Epikuron 200 from Degussa BioActives, a pharmaceutical grade product of soybean origin. All data are normalized to the absorbance obtained from hemolysis by the 0.5 mM tetradecyltrimethylammonium chloride sample.

| Structure (SMILES) | critical micelle concentration (CMC) [1] [mM] | half-life (hydrolysis) [2] [h] | Visual appearance after 5 min. [3] | permeability of intestinal segments for marker molecules [4] | toxicity to red blood cells (relative haemolytic effect) (Erythrocytes from rats; at low concentrations, 37° C., 1 hour, compared with C14TAC) | toxicity to red blood cells (relative haemolytic effect) (Erythrocytes from rats; betaine ester co-formulated with phosphatidyl choline (weight ratio 20 to 80)) | damage to segments, potential difference over the segments before and after treatment [5] |
| --- | --- | --- | --- | --- | --- | --- | --- |
| CCCCCCCCCCCCCC[N+](C)(C)C.[Cl-] [C14TAC, tetradecyltrimethylammonium chloride, reference compound] | 2.5 | – | – | – | – | – | – |
| CCCCCCCCCCCCOC(=O)C[N+](C)(C)C [dodecyl betainate] | 3.1 | 1.5 | Turbid dispersion | not affected | lower than that of the stable surfactant C14TAC | further lowered | no increased damage |
| CCOC(=O)C[N+](C)(C)C [ethyl betainate, reference compound] | – | 9 | – | – | – | – | – |
